Source: publication PMC4575386, “Intact cell mass spectrometry as a rapid and specific tool for the differentiation of toxic effects in cell-based ecotoxicological test systems” (Analytical and Bioanalytical Chemistry, 2015)
“And” between values parts separate entries of the source, which are not always exact repeats. Equal values may be shown once.

Experiments:
in vitro = conditions: rainbow trout (Oncorhynchus mykiss)
Description: (§1) Subsequently, medium was replaced with exposure medium.

RTL-W1 cells [1] = assay: Intact cell MALDI-TOF mass spectrometry (IC-MS) profiles after 24 h toxin exposure; format: cell-based, rainbow trout (Oncorhynchus mykiss); conditions: for number of IC-MS peaks that changed significantly through the toxin exposure: 24 h exposure
Experimental: For IC-MS studies, cells were seeded in T25 cell culture flasks with a total amount of 1.7 × 10^6 cells. […] Toxin exposure was performed according to the viability studies.
After 24 h of toxin exposure, cells were harvested and washed with PBS at 2000×g, 4 °C for 5 min (Eppendorf 5424, Hamburg, Germany) based on the method detailed by Dong et al.. The total number of cells was calculated using an automated cell counter (Cedex XS Analyzer, Roche Innovatis, Bielefeld, Germany). The cell pellets were stored at −20 °C until IC-MS analysis.
According to the calculated cell number, stock solutions with 5 × 10^4 cells per μL as well as further dilutions of 2 × 10^4 and 1 × 10^4 cells per μL were prepared with PBS und stored on ice prior to IC-MS.
Samples and matrix solutions were deposited on the MALDI-TOF MS target layer by layer and successively air dried. First, a thin layer of saturated SA in ethanol was applied to an Opti-TOF 384 well insert (Kratos Analytical, Manchester, UK), followed by 0.5 μL of the sample solution and, finally, covered with 0.5 μL of SA matrix (38 mg/ml in water/ACN/TFA 40/60/0.2 (v/v/v)) which was presented by Munteanu et al.. All sample dilutions were spotted in duplicate.
MALDI-TOF mass spectra were obtained using an Axima Confidence mass spectrometer (Shimadzu Biotech, Manchester, UK) equipped with a 337-nm nitrogen laser. The filter for regulation of the laser firing power was set to 65. To generate representative profiles, a total of 600 laser shots were accumulated and averaged for each sample. Protein mass fingerprints were obtained in the linear, positive mode at a maximal laser repetition rate of 50 Hz within a mass range of 2000 to 20,000 Da.
MALDI-TOF MS data processing was performed using the LaunchpadTM v. 2.9 software (Shimadzu Biotech). A set of 10 peaks that occurred in the majority of spectra and were evenly distributed across the whole mass range were used for internal calibration.
For peak acquisition, an average smoothing method was performed with a smoothing filter width of 50 channels and a baseline filter width of 100 channels. […] For each spotted sample, a list of spectrum peaks was generated and analyzed statistically. The masses of equally treated samples were matched and means and standard deviations of ion abundances calculated. […] For principal component analysis (PCA), relative ion abundances were calculated and data normalized according to the control treatments. […]
The 15 distinctive peaks between m/z 4562 and m/z 15,292 were analyzed for each toxin treatment: The arithmetic mean of the ion abundances was calculated from the six replicates and the direction of deviation from the control treatment was determined and tested for significance (paired two-sample t test) (Table 2).

RTL-W1 = system: RTL-W1; design: method as in PMID 24416442; conditions: RTL-W1, in preparation for micronucleus assays; cited from earlier work
RTL-W1 cells [2] = assay: Viability studies (CellTiter-Blue® and CellTiter-Glo®, not told apart); conditions: 24 h
Description: as §1

[3] = Solubility in the culture medium (observation); format: physicochemical; conditions: high concentrations resulted in precipitation
RTL-W1 cells [4] = conditions: 24 h exposure, L15/ex medium
Experimental: (§2) In this study, RTL-W1, a liver cell line from rainbow trout (Oncorhynchus mykiss) was used. […] The cells were routinely grown according to the method detailed by Hinger et al. [23] at 20 °C in Leibovitz L15 medium (Biochrom, Berlin, Germany) supplemented with 10 % fetal calf serum (Biochrom), 5 mM L-alanyl-L-glutamin (Biochrom) and 1 % antibiotics (Gibco by Life Technologies). Cells were grown to approximately 90 % confluency before passaging for experimental use.
(§3) Viability studies were performed in 96-well assay plates. Cells were seeded at a density of 20,000 viable cells/well and cultivated for approximately 24 h. Subsequently, medium was replaced with exposure medium. […]
(§4) After 24 h, the cultures were assayed for viability according to the manufacturer’s instructions (Promega). After a final incubation time of 4 h for CellTiter-Blue® Viability Assay, fluorescence was recorded at 540/595 nm on Tecan infinite 200 Pro microtiter plate reader (Tecan, Männedorf, Switzerland). The integration time for luminescence detection (CellTiter-Glo® Luminescent Cell Viability Assays) on Tecan GENios Plus microtiter plate reader (Tecan) was 500 ms per well.
(§5) Statistical analysis and EC50 calculations were performed using GraphPad Prism (Graphpad Software, San Diego, USA). […] EC50 values were calculated with a sigmoid dose–response fit and automatic outlier detection.

RTL-W1 cells [5] = system: RTL-W1 cells; design: method as in earlier work; conditions: cited from earlier work
RTL-W1 cells [6] = conditions: 24 h exposure, L15/ex medium; remark: listed apart in the source
Experimental: as §2, §3, §4, §5

RTL-W1 cells [7] = system: RTL-W1 cells; design: method as in earlier work; conditions: cited from earlier work; remark: listed apart in the source

| SMILES | viability at 24 h, 150 µM (in vitro) | number of IC-MS peaks that changed significantly through the toxin exposure (RTL-W1 cells [1]) | EC20, neutral red retention assay (RTL-W1) | concentrations with significant decrease in viability (RTL-W1 cells [2]; vs control) | viability at 24 h, 50 µM (in vitro) | solubility in the culture medium [3] | EC50 cytotoxicity, CellTiter-Glo®, 24 h (RTL-W1 cells [4]) | viability impairment (RTL-W1 cells [2]; 9 mg/L) | EC50 (redox activity), literature value (RTL-W1 cells [5]) | EC50 cytotoxicity, CellTiter-Blue®, 24 h (RTL-W1 cells [6]) | EC50 (membrane integrity), literature value (RTL-W1 cells [7]) | IC-MS profile behavior (RTL-W1 cells [1]; 2 mg/L, lowest concentration) |
| --- | --- | --- | --- | --- | --- | --- | --- | --- | --- | --- | --- | --- |
| c1ccc2nc3ccccc3cc2c1 [Acridine, acridine] | ~50% | seven | 40.9 mg/L and 228 μM |  |  |  |  |  |  |  |  |  |
| O=c1cc(-c2ccccc2)oc2ccc3ccccc3c12 [BNF, β-naphthoflavone] |  | nine |  | 10 µM and 20 µM | ~50% | low solubility |  |  |  |  |  |  |
| O=S(=O)([O-])[O-].[Cu+2] [Copper sulfate, copper sulfate] |  | eight |  |  |  |  | 10.08 mg/L | roughly 50% | 3.69 mg/L | 8.23 mg/L | 6.56 mg/L | apoptotic behavior |
